Patent publication US20250092065A1, “2-(INDAZOL-5-YL)-6-(PIPERIDIN-4-YL)-1,7-NAPHTHYRIDINE DERIVATIVES AND RELATED COMPOUNDS AS MODULATORS FOR SPLICING NUCLEIC ACIDS AND FOR THE TREATMENT OF PROLIFERATIVE DISEASES” (REMIX THERAPEUTICS INC., priority 2022, published 2025)
Where two headings read alike, the source gives them in different places.

Experiments:
MYB mRNA = assay: RT-qPCR splicing assay, MYB mRNA canonical (CJ) and alternative (AJ) junction; format: cell-based, human; settings: for AC50: MYB alternative junction mRNA, read-out: MYB AJ (increase in AJ mRNA, AC50)
Outline: (§1)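 Canonical and alternative-exon junction isoforms were quantified by RT-qPCR in cell lysates, with ΔCt against a housekeeper (GAPDH/GUSB/PPIA), then ΔΔCt vs DMSO, converted to 2^(−ΔΔCt) and percent response. K562 or A673 cells were exposed for 24 h to 11 concentrations (3-fold, top final 10 uM).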

HTT mRNA = assay: RT-qPCR splicing assay, HTT mRNA canonical (CJ) and alternative (AJ) junction; format: cell-based, human; settings: for AC50: HTT alternative junction mRNA, read-out: HTT AJ (increase in AJ mRNA, AC50)
Outline: as §1

MYB = assay: HiBiT protein abundance assay, MYB (K562 HiBiT knock-in); format: cell-based, human; settings: HiBiT knock-in K562 cells, 24 hours, top dose 10 μM
Outline: (§2)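 K562 HiBiT knock-in, 24 h, 37 °C, top 10 μM final, 3-fold ×10, DMSO ≤0.25%. Lytic HiBiT luminescence; PC = parental K562, NC = DMSO; 4PL IC50.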

K562 cells = assay: Cell Titer Glo 2.0 cell viability (toxicity) assay, K562; settings: 500 cells/well, 72 hours
HTT = assay: HiBiT protein abundance assay, HTT (K562 HiBiT knock-in); format: cell-based, human; settings: HiBiT knock-in K562 cells, 24 hours, top dose 10 μM
Outline: as §2

SMN2 mRNA = assay: RT-qPCR splicing assay, SMN2 mRNA; format: cell-based, human; settings: canonical junction qPCR panel, Table 4, read-out: SMN2 IC50 (decrease in CJ mRNA levels)
Outline: as §1

Target C = assay: HiBiT protein abundance assay, Target C (K562 HiBiT knock-in); format: cell-based, human; settings: HiBiT knock-in K562 cells, 24 hours, top dose 10 μM
Outline: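 K562 HiBiT knock-in cells (10000/well) were treated 24 h at 37° C with a 10-point 3-fold dilution series (top 10 μM final, ≤0.25% DMSO). HiBiT luminescence was read after lytic LgBiT detection. Percent response used unmodified K562 and DMSO-treated knock-in controls, and IC50 came from a four-parameter fit at 50% of untreated.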

[1] = Homo sapiens, MYB canonical junction mRNA, RT-qPCR, read-out: MYB CJ (decrease in CJ mRNA levels, IC50)
[2] = Homo sapiens, canonical junction qPCR panel, Table 4, read-out: MYB IC50 (decrease in CJ mRNA levels)
[3] = Homo sapiens, HTT canonical junction mRNA, RT-qPCR, read-out: HTT CJ (decrease in CJ mRNA levels, IC50)
[4] = Homo sapiens, canonical junction qPCR panel, Table 4, read-out: HTT IC50 (decrease in CJ mRNA levels)

Row | IC50 (MYB mRNA; MYB canonical junction mRNA, RT-qPCR, read-out: MYB CJ (decrease in CJ mRNA levels, IC50)) | IC50 (MYB mRNA; canonical junction qPCR panel, Table 4, read-out: MYB IC50 (decrease in CJ mRNA levels)) | IC50 (HTT mRNA; HTT canonical junction mRNA, RT-qPCR, read-out: HTT CJ (decrease in CJ mRNA levels, IC50)) | IC50 (HTT mRNA; canonical junction qPCR panel, Table 4, read-out: HTT IC50 (decrease in CJ mRNA levels)) | IC50 (MYB) | IC50 (HTT) | IC50 (SMN2 mRNA) | IC50 (Target C) | IC50 (MYB mRNA; [1]) | IC50 (MYB mRNA; [2]) | IC50 (HTT mRNA; [3]) | IC50 (HTT mRNA; [4]) | IC50 (SMN2 mRNA; Homo sapiens) | SMILES | AC50 (MYB mRNA; RT-qPCR) | AC50 (HTT mRNA; RT-qPCR) | Effect of Exemplary Compounds on Cell Viability, K562 (K562 cells) | AC50 (MYB mRNA; Homo sapiens, RT-qPCR) | AC50 (HTT mRNA; Homo sapiens, RT-qPCR)
1 | > 10000 nM | > 10000 nM | > 10000 nM | > 10000 nM | < 100 nM | < 100 nM | > 10000 nM | < 100 nM | – | – | – | – | – | Cc1c(O)c(-c2ccc3nc(N4CCC(NC(C)(C)C)C4)ccc3n2)cc2cn(C)nc12 (stereo not shown) [Compound 191] | > 10000 nM | > 10000 nM | A (A represents <100 nM) | – | –
2 | – | – | – | – | 1000 to 10000 nM | 1000 to 10000 nM | – | 1000 to 10000 nM | 1000 to 10000 nM | 1000 to 10000 nM | 1000 to 10000 nM | 1000 to 10000 nM | 1000 to 10000 nM | Cn1cc2cc(-c3ccc4nc(C5CCNCC5)ccc4n3)c(F)cc2n1 [Compound 193] | – | – | C (C represents 1000-9999 nM) | 1000 to 10000 nM | 1000 to 10000 nM
3 | – | – | – | – | < 100 nM | 100 to 1000 nM | – | 100 to 1000 nM | 100 to 1000 nM | 100 to 1000 nM | 100 to 1000 nM | 100 to 1000 nM | < 100 nM | Cn1cc2cc(-c3ccc4nc(N5CC[C@@H](NCC6CC6)C5)ccc4n3)c(O)cc2n1 [Compound 195] | – | – | B (B represents 100-1000 nM) | < 100 nM | 100 to 1000 nM
4 | – | – | – | – | > 10000 nM | > 10000 nM | – | > 10000 nM | > 10000 nM | > 10000 nM | > 10000 nM | > 10000 nM | 1000 to 10000 nM | Cn1cc2cc(-c3ccc4nc(C5CCNCC5)ccc4n3)c(C(F)F)cc2n1 [Compound 196] | – | – | D (D represents greater than 10 μM in K562 cells) | > 10000 nM | > 10000 nM
5 | – | – | – | – | 100 to 1000 nM | < 100 nM | – | 100 to 1000 nM | 100 to 1000 nM | 100 to 1000 nM | < 100 nM | < 100 nM | < 100 nM | Cn1cc2cc(-c3ccc4nc(N5CC[C@H](NC6CC6)C5)ccc4n3)c(O)cc2n1 [Compound 197] | – | – | B (B represents 100-1000 nM) | 100 to 1000 nM | < 100 nM
6 | – | – | – | – | < 100 nM | < 100 nM | – | < 100 nM | < 100 nM | < 100 nM | < 100 nM | < 100 nM | < 100 nM | Cn1cc2cc(-c3ccc4nc(N5CC[C@@H](NC6CC6)C5)ccc4n3)c(O)cc2n1 [Compound 198] | – | – | B (B represents 100-1000 nM) | < 100 nM | < 100 nM
7 | – | – | – | – | 100 to 1000 nM | 100 to 1000 nM | – | 100 to 1000 nM | 100 to 1000 nM | 100 to 1000 nM | 100 to 1000 nM | 100 to 1000 nM | 100 to 1000 nM | Cn1cc2nc(-c3ccc4nc(C5CCNCC5)ccc4n3)ccc2n1 [Compound 199] | – | – | B (B represents 100-1000 nM) | 100 to 1000 nM | 100 to 1000 nM
8 | – | – | – | – | 1000 to 10000 nM | 1000 to 10000 nM | – | 1000 to 10000 nM | 1000 to 10000 nM | 1000 to 10000 nM | 1000 to 10000 nM | 1000 to 10000 nM | 1000 to 10000 nM | Cn1cc2cc(-c3ccc4nc(C5CCNCC5)ccc4n3)ncc2n1 [Compound 200] | – | – | C (C represents 1000-9999 nM) | 1000 to 10000 nM | 1000 to 10000 nM
